# Data published in patent publication US20240082212A1, “USE OF MDMA FOR TREATMENT OF STRESS-RELATED DISORDERS” (priority 2022, published 2024).
# What was measured:
# [1] = system: cortical neurons; experiment: Neurite outgrowth in embryonic rat cortical neuron cultures; format: cell-based; conditions: any tested concentration (0.001 to 10000 nM), 3 days, vs vehicle
# Description: Female Wistar rats of 17 days gestation were killed by cervical dislocation and the fetuses (typically 6 to 8 in number) were removed from the uteri. Fetal brains were placed in ice-cold medium of Leibovitz (L15, Gibco, France). Cortex was dissected and meninges were carefully removed. The cortical neurons were dissociated by trypsinization (trypsin-EDTA, Gibco) in the presence of DNAse I (Roche, France). The reaction was stopped by addition of Dulbecco's Modified Eagle Medium (DMEM; Gibco) with 10% of fetal bovine serum (FBS; Gibco). The suspension was triturated with a 10-ml pipette and a 21-gauge needle syringe and centrifuged. The pellet of dissociated cells was resuspended in a medium consisting of Neurobasal (Gibco) supplemented with 2% B27 supplement (Gibco), 0.5 mM L-Glutamine (Gibco), and an antibiotic-antimycotic mixture. Viable cells were counted in a Neubauer cytometer and cells were seeded in 96-well plates (Costar) precoated with poly-L-lysine at 10,000 cells/well. […] Stock solutions were prepared in sterile water at 10 mM and stored at −20° C. until used. Further dilutions were prepared in culture in the medium on the day of the treatment. 0.1% Sterile water was present in all tested conditions.
# The experimental protocol was performed in two independent cultures (i.e., from two different pregnant rats). For each culture, each condition was tested in sextuplet (6 wells per condition per culture for a total of 12 wells per condition). […] After three days of plating and compound treatment (Day 3), cultures were fixed with paraformaldehyde in phosphate buffered saline at 4° C. (PBS, 4%, Sigma). All subsequent steps were performed at room temperature. Cells were successively permeabilized for 30 minutes using 0.1% triton, saturated with PBS containing 3% bovine serum albumin (BSA) and incubated for 1 hour with anti-beta III tubulin antibody (T5168, Sigma). […] Finally, nuclei were stained with 4′-6-diamidino-2-phenylindole (DAPI). After rinsing the cells with PBS, the plate was imaged and neurite networks were examined and analyzed using a High-Content Screening platform (CellInsight CXS, Thermo Scientific) with integrated Photometrics high-resolution fluorescent camera, Olympus objective (10×) and HCS Studio Cell Analysis Software. Approximately 2,000 neurons per well were analyzed using a validated cortex neuron outgrowth algorithm that utilizes parameters optimized for analysis of embryonic rat cortical neuron cultures. The HCS Studio Cell Analysis Software output included values for neurite total count (#), neurite total length (μm) and total number of branch points (#) for each of the 6 wells per culture. The evaluation of neurite outgrowth was performed using the average number of neurites per neuron (#), the average of total neurite length per neuron (μm) and the average number of branch points per neuron (#) across 12 wells. Data also was transformed to percent (%) of the average vehicle control value. Results were expressed as mean (±s.e.m.) of the transformed (% of vehicle control) data. Statistical analyses were performed on transformed percent of the average vehicle control data for each measure for each test article using one-way analysis of variance (Anova, StatView). Where applicable, Dunnett's test was used for multiple pairwise comparisons to the negative control (vehicle) condition. […] The level of significance was set at p value less than or equal to 0.05 (*p<0.05).
# [2] = system: C57BL/6J mice; experiment: Head twitch response (HTR); format: in vivo, mouse; conditions: 30 minutes after injection
# Description: Male C57BL/6J mice at 6-8 weeks of age were purchased from Jackson Laboratories and housed four per cage in a climate and humidity-controlled room in a vivarium at the University of California, San Diego. The room operated on a reverse light cycle (lights on at 1900 h, off at 0700 h) with food and water available ad libitum, except during testing. All testing was performed during 1000 h and 1800 h. After a minimum of 1 week acclimation to the housing facility, mice were anesthetized using a mixture of ketamine (100 mg/kg IP) and xylazine (10 mg/kg IP). Under deep anesthesia, an incision was made in the scalp and a small neodymium magnet (4.57 mm×4.57 mm×2.03 mm) was attached to the cranium using cyanoacrylate and dental cement. After at least a 2-week recovery period, the mouse was removed from the home cage and injected intraperitoneally with the test article or vehicle (0.9% sterile saline). Immediately, the mouse was placed in a glass cylinder surrounded by a magnetometer coil and the head twitch response (HTR) was assessed for 30 minutes (Halberstadt and Geyer, 2013). The output of the coil was recorded using a Powerlab/8SP with LabChart v.7.3.2 (ADInstruments). Coil voltage was amplified, low-pass filtered (2-10 kHz cut-off frequency) to remove interference, digitized and sampled at 20 kHz. Head twitches were identified using a validated technique based on artificial intelligence (Halberstadt, 2020). Events in the recordings were transformed into a visual representation in the time-frequency domain and deep features were extracted using the pretrained convolutional neural network ResNet-50, and the images were subsequently classified using a Support Vector Machine algorithm.
# Test articles (R,S-MDA, R(−)-MDA, S-(+)MDA), R,S-MDMA, R(−)-MDMA and S(+)-MDMA) were supplied by the NIDA Drug Supply Program as neat powders. Racemic MDA and MDMA and their enantiomers were dissolved in saline and injected IP at a volume of 5 mL/kg. Each dose was calculated based on the salt form of the compounds. For each treatment condition, six groups of mice (n=5-6/group) were treated with vehicle or the test drug (0.1, 0.3, 1, 3, or 10 mg/kg) and HTR assessed for 30 minutes immediately following injections. To avoid carryover effects, each treatment condition was performed at least seven days apart. Total number of mice used for the experiment was 63.
# [3] = target: T1, Adrenergic α2A (Homo sapiens, UniProt P08913); experiment: Eurofins Panlabs radioligand binding panel, adrenergic α2A; conditions: read-out: % inhibition of binding or activity
# T1 sequence (P08913 1-465): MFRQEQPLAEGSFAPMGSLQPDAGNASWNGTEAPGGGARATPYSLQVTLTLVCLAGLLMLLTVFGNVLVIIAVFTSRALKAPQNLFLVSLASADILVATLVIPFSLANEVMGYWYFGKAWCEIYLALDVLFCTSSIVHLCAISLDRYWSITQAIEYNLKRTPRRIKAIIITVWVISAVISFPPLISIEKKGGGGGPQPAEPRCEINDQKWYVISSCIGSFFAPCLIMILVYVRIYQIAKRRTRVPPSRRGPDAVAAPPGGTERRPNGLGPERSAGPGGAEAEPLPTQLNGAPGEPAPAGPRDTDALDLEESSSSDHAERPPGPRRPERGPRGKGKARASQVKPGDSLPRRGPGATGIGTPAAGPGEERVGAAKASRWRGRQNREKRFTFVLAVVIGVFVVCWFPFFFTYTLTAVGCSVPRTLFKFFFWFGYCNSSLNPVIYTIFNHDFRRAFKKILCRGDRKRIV
# Description: Each of the compounds was evaluated for binding to 87 different targets as part of a panel (Eurofins Panlabs, Taiwan, China). Each compound was tested at a single concentration of […]. The panel included mostly G-protein-couple receptors, ion channels, enzymes, transporters and nuclear receptors, expressed in the central nervous system, cardiovascular, respiratory, gastrointestinal and renal systems. A limited number of targets were of pig, rat or guinea pig origin. Targets were expressed in human recombinant cells lines, rat brain or spinal cord, guinea pig brain or pig heart. Methods were adapted from the scientific literature to maximize reliability and reproducibility. Reference standards were run as an integral part of each assay to ensure validity of the results obtained (available online at the eurofins website for the safety screen 87 panel).
# [4] = target: Serotonin 5-HT2B (Homo sapiens, UniProt P41595); experiment: Eurofins Panlabs radioligand binding panel, serotonin 5-HT2B; conditions: 10 uM
# [5] = target: T2, Serotonin 5-HT1A (Homo sapiens, UniProt P08908); experiment: Eurofins Panlabs radioligand binding panel, serotonin 5-HT1A; conditions: 10 uM
# T2 sequence (P08908 1-422): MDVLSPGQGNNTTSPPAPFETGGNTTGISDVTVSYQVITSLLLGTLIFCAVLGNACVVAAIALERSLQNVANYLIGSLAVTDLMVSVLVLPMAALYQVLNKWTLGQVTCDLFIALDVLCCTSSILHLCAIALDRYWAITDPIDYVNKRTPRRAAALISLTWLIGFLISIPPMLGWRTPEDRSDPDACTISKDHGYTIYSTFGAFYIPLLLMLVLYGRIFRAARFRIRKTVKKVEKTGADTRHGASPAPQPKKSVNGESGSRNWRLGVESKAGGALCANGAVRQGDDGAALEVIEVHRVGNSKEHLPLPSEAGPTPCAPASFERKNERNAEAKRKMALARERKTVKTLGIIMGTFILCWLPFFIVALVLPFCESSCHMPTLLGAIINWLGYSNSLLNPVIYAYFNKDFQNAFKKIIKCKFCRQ
# [6] = Rat plasma pharmacokinetics after cumulative (QID) SC injections; conditions: for Cmax: metabolite after QID SC parent (R-MDA after R-MDMA, S-MDA after S-MDMA, total MDA after Rac-MDMA)
# [7] = male rat plasma, metabolite after QID SC parent, total 10 mg/kg/day
# [8] = male rat plasma, metabolite after QID SC parent, total 20 mg/kg/day
# Chain of Serotonin 5-HT2B (P41595 whole entry): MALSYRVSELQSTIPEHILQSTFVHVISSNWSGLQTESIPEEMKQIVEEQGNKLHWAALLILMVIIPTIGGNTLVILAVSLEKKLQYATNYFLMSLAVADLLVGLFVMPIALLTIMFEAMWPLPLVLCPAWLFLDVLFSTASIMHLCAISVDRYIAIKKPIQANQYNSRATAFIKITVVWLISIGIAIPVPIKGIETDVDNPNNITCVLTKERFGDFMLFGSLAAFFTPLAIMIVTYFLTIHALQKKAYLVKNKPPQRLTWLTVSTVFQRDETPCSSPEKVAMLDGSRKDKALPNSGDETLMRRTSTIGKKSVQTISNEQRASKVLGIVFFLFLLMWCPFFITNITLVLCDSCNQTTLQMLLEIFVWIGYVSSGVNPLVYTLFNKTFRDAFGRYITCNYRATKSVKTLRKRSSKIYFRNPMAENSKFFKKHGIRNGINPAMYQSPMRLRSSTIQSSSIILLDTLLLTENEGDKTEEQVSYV
smiles,measurement,setting,value
"CC(N)Cc1ccc2c(c1)OCO2 (racemic) [Racemic MDA, 3,4-methylenedioxyamphetamine]",neurite number (#),[1],did not significantly alter
same,neurite total length (μm),[1],did not significantly alter
same,total number of branch points (#),[1],did not significantly alter
same,head twitch response (HTR) compared to control (vehicle),[2]; 3 mg/kg IP,increased HTR
same,inhibition at 10 µM,[3],53%
same,inhibition at 10 µM,[4]; read-out: % inhibition of binding or activity,89%
"C[C@@H](N)Cc1ccc2c(c1)OCO2 [R-MDA, R(−)-MDA]",% inhibition of binding or activity,[5],50%
same,neurite number (#),[1],did not significantly alter
same,neurite total length (μm),[1],did not significantly alter
same,total number of branch points (#),[1],did not significantly alter
same,head twitch response (HTR) compared to control (vehicle),[2]; 1 mg/kg IP,elicited an increase in HTR
same,head twitch response (HTR) compared to control (vehicle),[2]; 3 mg/kg IP,elicited an increase in HTR
same,head twitch response (HTR) compared to control (vehicle),[2]; 10 mg/kg IP,elicited an increase in HTR
same,dose dependence of Cmax and AUC0-27 hr,"[6]; dose increase from 10 to 20 mg/kg/day of the dosed test article, QID SC",approximately dose proportional manner
same,Cmax,"[6]; male rat plasma, total 10 mg/kg/day",127 ng/mL
same,Cmax,"[6]; male rat plasma, total 20 mg/kg/day",272 ng/mL
same,AUC0-27 hr,[6]; [7],813 ng·h/mL
same,AUC0-27 hr/Dose,[6]; [7],81.3 *kg*ng/mL/mg
same,AUCTlast,[6]; [7],716 ng·h/mL
same,Cmax/Dose,[6]; [7],12.7 kg·ng/mL/mg
same,Tlast,[6]; [7],11 h
same,Tmax,[6]; [7],5 h
same,AUC0-27 hr,[6]; [8],2410 ng·h/mL
same,AUC0-27 hr/Dose,[6]; [8],121 *kg*ng/mL/mg
same,AUCTlast,[6]; [8],1810 ng·h/mL
same,Cmax/Dose,[6]; [8],13.6 kg·ng/mL/mg
same,T1/2,[6]; [8],2.67 h
same,Tlast,[6]; [8],11 h
same,Tmax,[6]; [8],5 h
same,% inhibition of binding or activity,[4],88%
